Experimental data from patent US20230085307A1, “PYRIDAZINONE COMPOUND AND HERBICIDE” (NISSAN CHEMICAL CORPORATION, priority 2019, published 2023).

What was measured:
persian speedwell [1] = experiment: Test Example 5: herbicidal effect by foliage application, plastic box (Table 20, symbol R); format: in vivo, Persian speedwell (Veronica persica); details: foliage application, 320 g/ha, three weeks after application
Method in brief: (§1)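 Foliar spray test: emulsion formulation diluted in water to a set application rate, sprayed onto 14-day-old plants raised in diluvial soil at 25° C to 30° C under glass. Both herbicidal effect and crop effect rated visually three weeks later.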

oval-leafed pondweed = experiment: Test Example 1: herbicidal activity, application before weed generation under submerged conditions (Table 16, symbol C); format: in vivo, oval-leafed pondweed (Monochoria vaginalis); details: amount of applied herbicide 320 g/ha
Method in brief: (§2)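 Alluvial soil was flooded to 4 cm depth, weed seeds were sown mixed and 2.5-leaf rice seedlings were transplanted. On sowing day, the compound's emulsion, diluted in water to a set dose, was applied to the water surface. Plants grew at 25–30 °C and were scored 0–5 after three weeks.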

Italian ryegrass [2] = experiment: Test Example 4: herbicidal effect by soil treatment (Table 19, symbol K); format: in vivo, Italian ryegrass (Lolium multiflorum); details: amount of applied herbicide 320 g/ha
Method in brief: (§3)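 Herbicidal effect was rated 3 weeks after treatment, using the scoring criteria of an earlier test. The compound, formulated as an emulsion and diluted in water to a set herbicide amount, had been sprayed uniformly on soil over freshly sown seeds. Growth took place in a greenhouse at 25° C. to 30° C.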

barnyard grass [3] = experiment: Test Example 3: herbicidal effect by foliage application, Wagner pot (Table 18, symbol H); format: in vivo, barnyard grass (Echinochloa crus-galli); details: 320 g/ha
Method in brief: (§4)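 Plants were sown in alluvial soil held under 0.1–0.5 cm standing water and grown 14 days in a greenhouse at 25–30 °C. An emulsifiable formulation, water-diluted to the set dose, was then sprayed onto the foliage, and effects were scored three weeks later using previously defined criteria.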

Italian ryegrass [4] = experiment: Test Example 5: herbicidal effect by foliage application, plastic box (Table 20, symbol K); format: in vivo, Italian ryegrass (Lolium multiflorum); details: foliage application, 320 g/ha, three weeks after application
Method in brief: as §1

Japanese bulrush = experiment: Test Example 1: herbicidal activity, application before weed generation under submerged conditions (Table 16, symbol B); format: in vivo, Japanese bulrush (Schoenoplectus juncoides); details: amount of applied herbicide 320 g/ha
Method in brief: as §2

wild oat [5] = experiment: Test Example 4: herbicidal effect by soil treatment (Table 19, symbol I); format: in vivo, wild oat (Avena fatua); details: amount of applied herbicide 320 g/ha
Method in brief: as §3

blackgrass [6] = experiment: Test Example 5: herbicidal effect by foliage application, plastic box (Table 20, symbol J); format: in vivo, blackgrass (Alopecurus myosuroides); details: foliage application, 320 g/ha, three weeks after application
Method in brief: as §1

green foxtail [7] = experiment: Test Example 4: herbicidal effect by soil treatment (Table 19, symbol G); format: in vivo, green foxtail (Setaria viridis); details: amount of applied herbicide 320 g/ha
Method in brief: as §3

southern crabgrass [8] = experiment: Test Example 4: herbicidal effect by soil treatment (Table 19, symbol F); format: in vivo, southern crabgrass (Digitaria ciliaris); details: amount of applied herbicide 320 g/ha
Method in brief: as §3

barnyard grass [9] = experiment: Test Example 4: herbicidal effect by soil treatment (Table 19, symbol H); format: in vivo, barnyard grass (Echinochloa crus-galli); details: amount of applied herbicide 320 g/ha
Method in brief: as §3

green foxtail [10] = experiment: Test Example 5: herbicidal effect by foliage application, plastic box (Table 20, symbol G); format: in vivo, green foxtail (Setaria viridis); details: foliage application, 320 g/ha, three weeks after application
Method in brief: as §1

velvetleaf [11] = experiment: Test Example 5: herbicidal effect by foliage application, plastic box (Table 20, symbol M); format: in vivo, velvetleaf (Abutilon theophrasti); details: foliage application, 320 g/ha, three weeks after application
Method in brief: as §1

late watergrass = experiment: Test Example 1: herbicidal activity, application before weed generation under submerged conditions (Table 16, symbol A); format: in vivo, late watergrass (Echinochloa oryzicola); details: amount of applied herbicide 320 g/ha
Method in brief: as §2

lambsquarters [12] = experiment: Test Example 4: herbicidal effect by soil treatment (Table 19, symbol O); format: in vivo, lambsquarters (Chenopodium album); details: amount of applied herbicide 320 g/ha
Method in brief: as §3

blackgrass [13] = experiment: Test Example 4: herbicidal effect by soil treatment (Table 19, symbol J); format: in vivo, blackgrass (Alopecurus myosuroides); details: amount of applied herbicide 320 g/ha
Method in brief: as §3

velvetleaf [14] = experiment: Test Example 4: herbicidal effect by soil treatment (Table 19, symbol M); format: in vivo, velvetleaf (Abutilon theophrasti); details: amount of applied herbicide 320 g/ha
Method in brief: as §3

lambsquarters [15] = experiment: Test Example 5: herbicidal effect by foliage application, plastic box (Table 20, symbol O); format: in vivo, lambsquarters (Chenopodium album); details: foliage application, 320 g/ha, three weeks after application
Method in brief: as §1

Chinese sprangletop = experiment: Test Example 3: herbicidal effect by foliage application, Wagner pot (Table 18, symbol D); format: in vivo, chinese sprangletop (Leptochloa chinensis); details: 320 g/ha
Method in brief: as §4

southern crabgrass [16] = experiment: Test Example 5: herbicidal effect by foliage application, plastic box (Table 20, symbol F); format: in vivo, southern crabgrass (Digitaria ciliaris); details: foliage application, 320 g/ha, three weeks after application
Method in brief: as §1

persian speedwell [17] = experiment: Test Example 4: herbicidal effect by soil treatment (Table 19, symbol R); format: in vivo, Persian speedwell (Veronica persica); details: amount of applied herbicide 320 g/ha
Method in brief: as §3

wild oat [18] = experiment: Test Example 5: herbicidal effect by foliage application, plastic box (Table 20, symbol I); format: in vivo, wild oat (Avena fatua); details: foliage application, 320 g/ha, three weeks after application
Method in brief: as §1

chickweed = experiment: Test Example 4: herbicidal effect by soil treatment (Table 19, symbol P); format: in vivo, common chickweed (Stellaria media); details: amount of applied herbicide 320 g/ha
Method in brief: as §3

false cleavers = experiment: Test Example 4: herbicidal effect by soil treatment (Table 19, symbol Q); format: in vivo, false cleavers (Galium spurium); details: amount of applied herbicide 320 g/ha
Method in brief: as §3

redroot pigweed = experiment: Test Example 4: herbicidal effect by soil treatment (Table 19, symbol N); format: in vivo, redroot pigweed (Amaranthus retroflexus); details: amount of applied herbicide 320 g/ha
Method in brief: as §3

barnyard grass [19] = experiment: Test Example 5: herbicidal effect by foliage application, plastic box (Table 20, symbol H); format: in vivo, barnyard grass (Echinochloa crus-galli); details: foliage application, 320 g/ha, three weeks after application
Method in brief: as §1

rice flat sedge = experiment: Test Example 3: herbicidal effect by foliage application, Wagner pot (Table 18, symbol E); format: in vivo, rice flat sedge (Cyperus iria); details: 320 g/ha
Method in brief: as §4

windgrass [20] = experiment: Test Example 4: herbicidal effect by soil treatment (Table 19, symbol L); format: in vivo, windgrass (Apera spica-venti); details: amount of applied herbicide 320 g/ha
Method in brief: as §3

windgrass [21] = experiment: Test Example 5: herbicidal effect by foliage application, plastic box (Table 20, symbol L); format: in vivo, windgrass (Apera spica-venti); details: foliage application, 320 g/ha, three weeks after application
Method in brief: as §1

## Cc1nn(C)c(=O)c(-c2c(-c3ccc(OC(F)F)cc3)sc3cc(F)c(F)cc23)c1O [5-084]
Persian speedwell [1]
  herbicidal effect on persian speedwell (R): 5 (Herbicidal rate of 90% or more (almost completely withered))
oval-leafed pondweed
  Herbicidal effect, C: oval-leafed pondweed: 0 (Herbicidal rate of 5% or less (almost no effect))
Italian ryegrass [2]
  K: Italian ryegrass, herbicidal effect grade: 0 (Herbicidal rate of 5% or less (almost no effect))
Barnyard grass [3]
  herbicidal effect on barnyard grass (H): 4 (Herbicidal rate of 70% or more and less than 90%)
Italian ryegrass [4]
  herbicidal effect on Italian ryegrass (K): 5 (Herbicidal rate of 90% or more (almost completely withered))
Japanese bulrush
  Herbicidal effect, B: Japanese bulrush: 2 (Herbicidal rate of 20% or more and less than 40%)
Wild oat [5]
  I: wild oat, herbicidal effect grade: 0 (Herbicidal rate of 5% or less (almost no effect))
Blackgrass [6]
  herbicidal effect on blackgrass (J): 4 (Herbicidal rate of 70% or more and less than 90%)
Green foxtail [7]
  G: green foxtail, herbicidal effect grade: 2 (Herbicidal rate of 20% or more and less than 40%)
Southern crabgrass [8]
  F: southern crabgrass, herbicidal effect grade: 0 (Herbicidal rate of 5% or less (almost no effect))
Barnyard grass [9]
  H: barnyard grass, herbicidal effect grade: 1 (Herbicidal rate of 5% or more and less than 20%)
Green foxtail [10]
  herbicidal effect on green foxtail (G): 4 (Herbicidal rate of 70% or more and less than 90%)
Velvetleaf [11]
  herbicidal effect on velvetleaf (M): 5 (Herbicidal rate of 90% or more (almost completely withered))
Late watergrass
  Herbicidal effect, A: late watergrass: 3 (Herbicidal rate of 40% or more and less than 70%)
Lambsquarters [12]
  O: lambsquarters, herbicidal effect grade: 5 (Herbicidal rate of 90% or more (almost completely withered))
Blackgrass [13]
  J: blackgrass, herbicidal effect grade: 0 (Herbicidal rate of 5% or less (almost no effect))
Velvetleaf [14]
  M: velvetleaf, herbicidal effect grade: 4 (Herbicidal rate of 70% or more and less than 90%)
Lambsquarters [15]
  herbicidal effect on lambsquarters (O): 5 (Herbicidal rate of 90% or more (almost completely withered))
Chinese sprangletop
  herbicidal effect on Chinese sprangletop (D): 0 (Herbicidal rate of 5% or less (almost no effect))
Southern crabgrass [16]
  herbicidal effect on southern crabgrass (F): 4 (Herbicidal rate of 70% or more and less than 90%)
Persian speedwell [17]
  R: persian speedwell, herbicidal effect grade: 3 (Herbicidal rate of 40% or more and less than 70%)
Wild oat [18]
  herbicidal effect on wild oat (I): 3 (Herbicidal rate of 40% or more and less than 70%)
chickweed
  P: chickweed, herbicidal effect grade: 0 (Herbicidal rate of 5% or less (almost no effect))
False cleavers
  Q: false cleavers, herbicidal effect grade: 2 (Herbicidal rate of 20% or more and less than 40%)
Redroot pigweed
  N: redroot pigweed, herbicidal effect grade: 5 (Herbicidal rate of 90% or more (almost completely withered))
Barnyard grass [19]
  herbicidal effect on barnyard grass (H): 2 (Herbicidal rate of 20% or more and less than 40%)
Rice flat sedge
  herbicidal effect on rice flat sedge (E): 3 (Herbicidal rate of 40% or more and less than 70%)
Windgrass [20]
  L: windgrass, herbicidal effect grade: 5 (Herbicidal rate of 90% or more (almost completely withered))
Windgrass [21]
  herbicidal effect on windgrass (L): 5 (Herbicidal rate of 90% or more (almost completely withered))
